Patent publication US8193234B2, “Compounds, compositions and methods of using same for modulating uric acid levels” (Ardea Biosciences, Inc., priority 2008, dated 2012)
Like-named read-outs stand apart in the source and are kept apart here. Blank lines part the entries; values can stand above or below the compound they belong to.

Assays:
[1] = molecular target: T1, hURAT1 Transporter (Homo sapiens, UniProt Q96S37); experiment: Uric Acid Uptake Assay (14C-uric acid uptake in HEK293/urat1 cells); format: cell-based; settings: 40 μM C14 uric acid, 10 minutes at room temperature
T1 construct: Full-length human URAT1 gene (SLC22A12) was subcloned from plasmid pCMV6-XL5 (Origene)
T1 sequence (Q96S37 1-553): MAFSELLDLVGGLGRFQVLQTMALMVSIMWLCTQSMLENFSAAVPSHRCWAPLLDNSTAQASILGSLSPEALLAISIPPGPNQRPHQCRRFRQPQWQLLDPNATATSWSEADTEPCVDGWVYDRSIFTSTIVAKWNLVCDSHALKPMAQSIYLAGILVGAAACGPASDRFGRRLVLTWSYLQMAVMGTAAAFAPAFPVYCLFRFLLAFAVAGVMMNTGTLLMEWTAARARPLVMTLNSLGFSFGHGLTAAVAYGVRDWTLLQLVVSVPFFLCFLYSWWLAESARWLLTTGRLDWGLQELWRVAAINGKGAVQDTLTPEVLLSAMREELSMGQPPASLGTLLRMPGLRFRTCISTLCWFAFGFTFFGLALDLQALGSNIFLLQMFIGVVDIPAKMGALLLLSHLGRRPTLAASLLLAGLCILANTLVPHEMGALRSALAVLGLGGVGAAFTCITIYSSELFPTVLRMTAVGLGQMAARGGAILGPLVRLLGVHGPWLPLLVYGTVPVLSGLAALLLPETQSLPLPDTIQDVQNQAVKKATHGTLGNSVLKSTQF
From the text: Creation of Stable Cell Lines Expressing hURAT1 Transporter: Full-length human URAT1 gene (SLC22A12) was subcloned from plasmid pCMV6-XL5 (Origene) into eukaryotic expression plasmid pCMV6/Neo (Origene) using Not I restriction sites. Gene sequencing confirmed the sequence of hURAT1 as outlined in Genbank (Accession #NM_144585.2). HEK293 human embryonic kidney cells (ATCC #CRL-1573) were propagated in EMEM tissue culture medium as described by ATCC in an atmosphere of 5% CO2 and 95% air. Transfections of HEK293 cells with the pCMV6/Neo/URAT1 construct were performed using L2000 transfection reagent (Invitrogen) as described by the manufacturer. After 24 h the transfected cells were split into 10 cm tissue culture plates and grown for 1 day after which the medium was replaced with fresh growth medium containing G418 (Gibco) at 0.5 mg/ml final concentration. Drug-resistant colonies were selected after approximately 8 days and then tested for ^14C-uric acid transport activity. The HEK293/urat1 cells are plated on Poly-D-Lysine Coated 96-well Plates at a density of 75,000 cells per well.
Cells were grown overnight (20-26 hours) at 37° C. in an incubator. Plates were allowed to come to room temperature and media was washed out with one wash of 250 μl of Wash Buffer (125 mM Na Gluconate, 10 mM Hepes ph 7.3). Compound or vehicle is added in assay buffer with C14 Uric Acid for a final concentration of 40 μM Uric Acid with a specific activity of 54 mCi/mmol. Assay Buffer is 125 mM Sodium Gluconate, 4.8 mM Potassium Gluconate, 1.2 mM Potassium phosphate, monobasic, 1.2 mM magnesium sulfate, 1.3 mM Ca Gluconate, 5.6 mM Glucose, 25 mM HEPES, pH 7.3. Plates were incubated at room temperature for 10 minutes then washed 3 times with 50 μl Wash Buffer and 3 times with 250 μl Wash Buffer. Microscint 20 Scintillation Fluid was added and plates were incubated overnight at 45° C. to equilibrate. Plates are then read on the TopCount Plate Reader and an EC50 value generated. (See Enomoto et al, Nature, 2002, 417, 447-451 and Anzai et al, J. Biol. Chem., 2004, 279, 45942-45950).
Compounds prepared as described herein, were examined according to the procedure described above and EC50 values generated. […] (N/A means data not available).

[2] = PO Dosing in Rats: urinary excretion profile; format: in vivo, Male Sprague-Dawley Rats; settings: analyte = dosed compound itself in urine, PO 3 mg/kg, male rats
Protocol: (§1) Compounds prepared as described in examples 1, 3, 7, 8, and 9 are administered PO to Male Sprague-Dawley Rats (250 grams; 3 animals per test group). The test compounds are dissolved in aqueous sodium hydroxide solution (0.2N), brought up to volume with phosphate buffered saline to a concentration of 0.6 mg/mL, and PO administered to the animals at a concentration of 3 mg/kg (5 mL/kg). Plasma samples are removed at 0.25, 0.5, 1, 3, 6, 12 and 24 hr after initial dose and analyzed for presence of compound and possible metabolite. Urine samples are also collected and analyzed for parent compound and/or metabolite.
(§2) Note that in some instances, 2-(5-Bromo-1-(4-cyanonaphthalen-1-yl)-1H-imidazol-2-ylthio)acetic acid (eg 1) is a possible in vivo metabolite of the compounds described in examples 2-9.

[3] = PO Dosing in Rats: plasma profile; format: in vivo, Male Sprague-Dawley Rats; settings: for Cmax / Tmax / half-life / AUC(0-t): Sprague-Dawley, rat; for Cmax / Tmax / half-life / Clast: analyte = dosed compound itself in plasma; for half-life: read-out: t½ (converted); for AUC t = 0_6, share in brackets / AUC t = 12_24, share in brackets / AUC t = _12, share in brackets: share of AUC 0_24; for AUC(0-t): male, plasma, po, 3 mg/kg
Protocol: as §1, §2

[4] = background statement, in certain instances; cited from earlier work
[5] = footnote *: plasma, not urinary, distribution, analyte = dosed compound, PO 3 mg/kg, male rats
[6] = analyte = dosed compound itself
[7] = analyte = dosed compound itself, PO 3 mg/kg, male rats, read-out: AUC t = 0_6
[8] = analyte = dosed compound itself, PO 3 mg/kg, male rats, read-out: AUC t = 0_24
[9] = analyte = dosed compound itself, PO 3 mg/kg, male rats, read-out: AUC t = 12_24
[10] = analyte = dosed compound itself, PO 3 mg/kg, male rats, read-out: AUC t = _12

EC50 [1]: 1 to 1000 nM
SMILES: CCOC(=O)[C@@H](NC(=O)CSc1ncc(Br)n1-c1ccc(C#N)c2ccccc12)C(C)C [Example 6, (2S)-Ethyl 2-(2-(5-bromo-1-(4-cyanonaphthalen-1-yl)-1H-imidazol-2-ylthio)acetamido)-3-methylbutanoate]

Total Urinary Excretion % of dose [2]: 26 % of dose | Urinary Distribution (%) 0-6 h [2]: 63% | Urinary Distribution (%) 6-12 h [2]: 30% | Urinary Distribution (%) 12-24 h [2]: 7% | EC50 [1]: 1000 to 30000 nM
SMILES: N#Cc1ccc(-n2c(Br)cnc2SCC(=O)NCCC(=O)O)c2ccccc12 [Example 7, 3-(2-(5-bromo-1-(4-cyanonaphthalen-1-yl)-1H-imidazol-2-ylthio)acetamido)propanoic acid]

Total Urinary Excretion % of dose [2]: 4.2 % of dose | BA ([3]; analyte = dosed compound itself, PO 3 mg/kg, male rats): 30% | Plasma Distribution (%) 0-6 h [3, 5]: 85* % | Plasma Distribution (%) 6-12 h [3, 5]: 11* % | Plasma Distribution (%) 12-24 h [3, 5]: 4* % | EC50 [1]: 1 to 1000 nM
SMILES: N#Cc1ccc(-n2c(Br)cnc2SCC(=O)O)c2ccccc12 [Example 1, 2-(5-Bromo-1-(4-cyanonaphthalen-1-yl)-1H-imidazol-2-ylthio)acetic acid]

EC50 [1]: 1000 to 30000 nM
SMILES: Cc1cnc(SCC(=O)O)n1-c1ccc(N(C)C)c2c1CCCC2

EC50 [1]: 1 to 1000 nM
SMILES: CCOC(=O)CCNC(=O)CSc1ncc(Br)n1-c1ccc(C#N)c2ccccc12 [Example 4, Ethyl 3-(2-(5-bromo-1-(4-cyanonaphthalen-1-yl)-1H-imidazol-2-ylthio)acetamido)propanoate]

Total Urinary Excretion % of dose [2]: 1 % of dose | Urinary Distribution (%) 0-6 h [2]: 66% | Urinary Distribution (%) 6-12 h [2]: 26% | Urinary Distribution (%) 12-24 h [2]: 9% | Cmax ([3]; PO 3 mg/kg, male rats): 25.8 ng/mL | Tmax ([3]; PO 3 mg/kg, male rats): 2.67 h | half-life ([3]; PO 3 mg/kg, male rats): 2.69 h | Clast ([3]; PO 3 mg/kg, male rats): 4.69 ng/mL | AUC t = 0_6, share in brackets [3, 6]: (49%) | AUC t = 12_24, share in brackets [3, 6]: (15%) | AUC t = _12, share in brackets [3, 6]: (36%) | AUC(0-t) [3, 7]: 91.5 ng·h/mL | AUC(0-t) [3, 8]: 187 ng·h/mL | AUC(0-t) [3, 9]: 28.2 ng·h/mL | AUC(0-t) [3, 10]: 67.7 ng·h/mL | EC50 [1]: 1000 to 30000 nM
SMILES: CC(C)[C@H](NC(=O)CSc1ncc(Br)n1-c1ccc(C#N)c2ccccc12)C(=O)O [Example 9, (2S)-2-(2-(5-bromo-1-(4-cyanonaphthalen-1-yl)-1H-imidazol-2-ylthio)acetamido)-3-methylbutanoic acid]

EC50 [1]: 1 to 1000 nM
SMILES: CCOC(=O)CNC(=O)CSc1ncc(Br)n1-c1ccc(C#N)c2ccccc12 [Example 2, Ethyl 2-(2-(5-bromo-1-(4-cyanonaphthalen-1-yl)-1H-imidazol-2-ylthio)acetamido)acetate]

Total Urinary Excretion % of dose [2]: 7 % of dose | Urinary Distribution (%) 0-6 h [2]: 74% | Urinary Distribution (%) 6-12 h [2]: 20% | Urinary Distribution (%) 12-24 h [2]: 7% | Cmax ([3]; PO 3 mg/kg, male rats): 56.6 ng/mL | Tmax ([3]; PO 3 mg/kg, male rats): 0.833 h | half-life ([3]; PO 3 mg/kg, male rats): 3.49 h | Clast ([3]; PO 3 mg/kg, male rats): 0.518 ng/mL | AUC t = 0_6, share in brackets [3, 6]: (58%) | AUC t = 12_24, share in brackets [3, 6]: (10%) | AUC t = _12, share in brackets [3, 6]: (32%) | AUC(0-t) [3, 7]: 145 ng·h/mL | AUC(0-t) [3, 8]: 251 ng·h/mL | AUC(0-t) [3, 9]: 25.6 ng·h/mL | AUC(0-t) [3, 10]: 79.8 ng·h/mL | EC50 [1]: 1000 to 30000 nM
SMILES: N#Cc1ccc(-n2c(Br)cnc2SCC(=O)NCC(=O)O)c2ccccc12 [Example 3, 2-(2-(5-Bromo-1-(4-cyanonaphthalen-1-yl)-1H-imidazol-2-ylthio)acetamido)acetic acid]

SMILES: CCCN(CCC)S(=O)(=O)c1ccc(C(=O)O)cc1 [probenecid]
individuals treated who fail to achieve reduction of serum uric acid levels<6 mg/dL [4]: 25-50% | individuals who develop intolerance [4]: one-third

EC50 [1]: 1 to 1000 nM
SMILES: CCOC(=O)[C@H](C)NC(=O)CSc1ncc(Br)n1-c1ccc(C#N)c2ccccc12 [Example 5, (2S)-Ethyl 2-(2-(5-bromo-1-(4-cyanonaphthalen-1-yl)-1H-imidazol-2-ylthio)acetamido)propanoate]

SMILES: Oc1ncnc2[nH]ncc12 [Allopurinol, allopurinol]
incidence of side effects, of all individuals treated with the drug [4]: 20%

Total Urinary Excretion % of dose [2]: 8 % of dose | Urinary Distribution (%) 0-6 h [2]: 63% | Urinary Distribution (%) 6-12 h [2]: 32% | Urinary Distribution (%) 12-24 h [2]: 5% | Cmax ([3]; PO 3 mg/kg, male rats): 110 ng/mL | Tmax ([3]; PO 3 mg/kg, male rats): 1 h | half-life ([3]; PO 3 mg/kg, male rats): 2.99 h | Clast ([3]; PO 3 mg/kg, male rats): 0.371 ng/mL | AUC t = 0_6, share in brackets [3, 6]: (69%) | AUC t = 12_24, share in brackets [3, 6]: (13%) | AUC t = _12, share in brackets [3, 6]: (17%) | AUC(0-t) [3, 7]: 339 ng·h/mL | AUC(0-t) [3, 8]: 488 ng·h/mL | AUC(0-t) [3, 9]: 65.2 ng·h/mL | AUC(0-t) [3, 10]: 83.9 ng·h/mL | EC50 [1]: > 30000 nM
SMILES: C[C@H](NC(=O)CSc1ncc(Br)n1-c1ccc(C#N)c2ccccc12)C(=O)O [Example 8, (2S)-2-(2-(5-bromo-1-(4-cyanonaphthalen-1-yl)-1H-imidazol-2-ylthio)acetamido)propanoic acid]

EC50 [1]: 1 to 1000 nM
SMILES: N#Cc1ccc(-n2c(Br)cnc2SC(F)(F)C(=O)O)c2ccccc12 [Example 10, 2-(5-Bromo-1-(4-cyanonaphthalen-1-yl)-1H-imidazol-2-ylthio)-2,2-difluoroacetic acid]
